Measurements from PubChem BioAssay AID463203 (Broad Institute, 2010).
The source made the active and inactive calls.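 Rule for the calls: active = more than half of replicate measurements showing over 20% loss of kinase signal relative to plate controls; inconclusive = some but at most half of replicates over 20% loss; inactive = no replicate over 20% signal loss.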

What follows are compounds tested against Glycogen synthase kinase-3 alpha (Homo sapiens) (UniProt P49840) (assay: concentration-response blocking of human GSK3A – biochemical, luminescence, cell-free homogeneous, retest, dose response (AID 463203)). Conditions: GSK-3 alpha enzyme, ADP-Glo luminescence, 60 min.
Glycogen synthase kinase-3 alpha (Homo sapiens), sequence (P49840 whole entry, looked up): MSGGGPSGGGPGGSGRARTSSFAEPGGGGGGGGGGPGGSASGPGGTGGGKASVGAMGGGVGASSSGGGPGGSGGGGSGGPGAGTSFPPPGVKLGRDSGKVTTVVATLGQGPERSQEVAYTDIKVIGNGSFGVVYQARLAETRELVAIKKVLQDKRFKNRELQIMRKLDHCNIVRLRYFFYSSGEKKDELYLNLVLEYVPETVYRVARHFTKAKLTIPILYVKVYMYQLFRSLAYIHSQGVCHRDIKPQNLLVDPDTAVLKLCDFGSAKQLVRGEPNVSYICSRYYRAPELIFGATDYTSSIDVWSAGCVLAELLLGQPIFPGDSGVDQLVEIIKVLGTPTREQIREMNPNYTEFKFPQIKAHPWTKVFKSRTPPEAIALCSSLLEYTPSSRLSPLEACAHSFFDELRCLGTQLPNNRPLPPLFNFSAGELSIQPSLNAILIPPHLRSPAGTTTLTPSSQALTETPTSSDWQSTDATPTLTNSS

SMILES | AC50
NC(=O)c1ccc(NCCCN2CCOCC2)c([N+](=O)[O-])c1 | > 30 µM (inactive)
Nc1nonc1-n1nnc(C(=O)N/N=C\c2cccc(Cl)c2)c1CN1CCOCC1 | 15.2 µM
COc1ccc(C(=O)c2sc(NC(C)C)nc2N)cc1OC | 0.234 µM
O=C(Nc1ccccc1-c1nnc(SCc2ccc(Cl)cc2)o1)c1ccccc1 | > 30 µM (inactive)
COc1cccc(CN2CCN(Cc3cc(OC)c(OC)cc3[N+](=O)[O-])CC2)c1 | > 30 µM (inactive)
Clc1ccc(-c2nc3ncccn3c2Nc2ccc3c(c2)OCO3)cc1 | > 30 µM (inactive)
Cc1cc(O)c2c(-c3ccccc3)cc(=O)oc2c1 | > 30 µM (inactive)
O=C(Nc1ccccc1C(=O)N1CCOCC1)c1cccnc1 | > 30 µM (inactive)
CCc1ccc(NC(=S)NC(=O)CC(C)C)cc1 | > 30 µM (inactive)
O=C(Nc1cc(F)cc(F)c1)c1ccc(NCCCN2CCCCCC2)c([N+](=O)[O-])c1 | > 30 µM (inactive)
CC[n+]1c(/C=C/C=C/N(C(C)=O)c2ccccc2)sc2ccccc21 | > 30 µM (inactive)
Nc1nc(-c2ccccc2)cc(-c2ccccc2O)n1 | 25.4 µM
O=C(CSc1ccccc1)Nc1nnc(C2CC2)s1 | > 30 µM (inactive)
COc1cccc(/C=N/NC(=O)C(=O)N2CCCC2)c1OC | > 30 µM (inactive)
CCOc1cc2c(C#N)c(N3CCCC3)nc(N)c2c(N)n1 | > 30 µM (inactive)
COc1ccc(CCNC(=O)CSc2nc3[nH]ncc3c(=O)n2-c2ccccc2OC)cc1OC | 1.89 µM
Fc1cccc(/C=N/Nc2ccc3ccccc3n2)c1 | > 30 µM (inactive)
CC(C)c1c(C(=O)N/N=C/c2ccncc2)nnn1-c1nonc1N | > 30 µM (inactive)
COc1ccc(Nc2nc(-c3ccccc3)cs2)cc1 | > 30 µM (inactive)
c1ccc2c(c1)Sc1ccccc1-n1cnnc1-2 | > 30 µM (inactive)
Cc1[nH]c2ccccc2c1N=Nc1cccc(C(=O)O)c1 | > 30 µM (inactive)
Cc1nc2cc(-c3ccccc3)ccc2o1 | > 30 µM (inactive)
CC(C)N1C(=O)/C(=C/C=C/c2ccco2)C(=O)N(Cc2ccco2)C1=O | > 30 µM (inactive)
Cc1cc2oc(C(=O)NCCc3ccc(S(N)(=O)=O)cc3)c(C)c2cc1C | > 30 µM (inactive)
S=C(Nc1cccnc1)Nc1cccc2cnccc12 | > 30 µM (inactive)
Cc1cc(N2CCN(c3ccccc3)CC2)n2ncnc2n1 | > 30 µM (inactive)

SMILES | AC50
COc1cc(/C=N/NC(=O)c2cccs2)ccc1O | > 30 µM (inactive)
Cc1cnn(C(=O)c2ccccc2Br)c1 | > 30 µM (inactive)
Cc1ccc(NC(=O)CSCc2nc3c(nnn3Cc3ccc(F)cc3)c(=O)[nH]2)c(C)c1 | > 30 µM (inactive)
COc1ccc(Br)cc1C(=O)Nc1cccc(NC(=O)c2ccco2)c1 | > 30 µM (inactive)
O=[N+]([O-])c1cc(S(=O)(=O)c2ccc(N3CCCCC3)c([N+](=O)[O-])c2)ccc1N1CCCCC1 | > 30 µM (inactive)
COc1ccc2nc(SCC(=O)Nc3nccs3)[nH]c2c1 | 7.82 µM
COc1cc(OC)cc(C(=O)O/N=C(\N)c2ccccn2)c1 | > 30 µM (inactive)
C/C(=N\NC(=O)c1ccccc1NC(=O)c1ccc(Cl)cc1)c1ccncc1 | 12.6 µM
COC(=O)c1cnn(C(=O)c2cc(OC)ccc2Br)c1N | > 30 µM (inactive)
Cc1nn(CCOc2ccccc2)c(=O)n1-c1ccccc1F | > 30 µM (inactive)
COc1ccccc1/C=N/NC(=O)c1ccccc1Cl | > 30 µM (inactive)
Cc1ccc(C)c(Sc2ccc(NC(=O)CCl)cc2)c1 | > 30 µM (inactive)
Nc1nonc1-n1nnc(C(=O)N/N=C/c2ccc(F)cc2)c1-c1cccs1 | 1.05 µM
COc1cccc(/C=N/NC(=O)c2nnn(-c3nonc3N)c2-c2cccs2)c1 | 0.899 µM
c1ccc2c(c1)ccc1nnc(-c3ccc4c(c3)OCO4)n12 | > 30 µM (inactive)
O=C(Oc1cccc([N+](=O)[O-])c1)N1CCCCC1 | > 30 µM (inactive)
CCN1C(=O)c2ccc(C(=O)NCc3ccc4c(c3)OCO4)cc2C1=O | > 30 µM (inactive)
Cc1nc2ccc(-c3ccccc3)cc2o1 | > 30 µM (inactive)
CN1/C(=C\C=C(C#N)C#N)C(C)(C)c2ccccc21 | > 30 µM (inactive)
S=C(Nc1ccc(Nc2ccccc2)cc1)Nc1ccccn1 | > 30 µM (inactive)
CC(C)(C)C(=O)c1cnc(Nc2ccccc2Cl)s1 | > 30 µM (inactive)
NC1=NC(=O)/C(=C/c2ccc(-c3ccc(S(N)(=O)=O)cc3)o2)S1 | 0.397 µM
COc1cc2ncc(S(=O)(=O)c3ccccc3)c(N3CCCC(C)C3)c2cc1OC (stereo not drawn) | > 30 µM (inactive)
O=C1NC(=O)/C(=C/c2ccc(O)cc2)S1 | 27.2 µM
CC1=C(C(=O)OCc2ccc3c(c2)OCO3)C(c2ccccc2)NC(=O)N1 (stereo not drawn) | 1.97 µM
Cc1sc(NC(=S)NC(=O)C(C)(C)C)c(C(N)=O)c1C | > 30 µM (inactive)

SMILES | AC50
CC(=O)c1sc(NC(=O)CN2C(=O)C3CCCCC3C2=O)nc1-c1ccccc1 (stereo not drawn) | 8.54 µM
COc1ccc(C(=O)O/N=C(\N)c2ccccc2)cc1 | 25 µM
O=c1c(O)cccc2cc(O)c(O)c(O)c12 | 21.1 µM
c1nc(NC2CCCCCC2)c2[nH]cnc2n1 | 29.8 µM
O=C(CCc1nnc(-c2ccc3c(c2)OCO3)o1)N1CCC(c2ccc(F)cc2)C1 (stereo not drawn) | 10 µM
C/C(CC(=O)Nc1ccc(Cl)cc1Cl)=N\NC(=O)C(=O)N1CCCC1 | > 30 µM (inactive)
CCN1/C(=C/C=C/c2sc3ccccc3[n+]2CC)Sc2ccccc21 | 24.6 µM
Cc1ccc(C(=O)c2cc(C)sc2NC(=O)CN2CCN(C(=O)c3ccco3)CC2)cc1 | > 30 µM (inactive)
Cc1cccc(NC(=O)CSCc2nc3c(nnn3Cc3ccc(F)cc3)c(=O)[nH]2)c1C | > 30 µM (inactive)
O=c1[nH]ncc(N/N=C\c2cccs2)c1Cl | 6.07 µM
COc1cc(C2CC(=O)Nc3n[nH]c(-c4ccccc4)c32)cc(OC)c1OC (stereo not drawn) | > 30 µM (inactive)
COC(=O)c1sc(NC(=O)COc2ccc(OC)cc2)nc1C | 28.6 µM
CN1/C(=C/C(=S)NC(=O)C2(C)CC2(Cl)Cl)C(C)(C)c2ccccc21 (stereo not drawn) | > 30 µM (inactive)
CCSc1nc2c(c(=O)[nH]1)C(c1ccc(C)cc1)C1=C(CCCC1=O)N2 (stereo not drawn) | > 30 µM (inactive)
C=CCc1cccc(/C=N/n2c(C)nnc2C)c1O | > 30 µM (inactive)
O=C(NCc1ccc2c(c1)OCO2)c1cc(COc2c(F)cccc2F)on1 | > 30 µM (inactive)
O=C(CSc1nnc(SCc2ccc(Cl)cc2)s1)N/N=C/c1ccccc1C(=O)O | > 30 µM (inactive)
CC1CCC2(CC1)NC(=O)N(CC(=O)Nc1ccc(C(N)=O)cc1)C2=O (stereo not drawn) | > 30 µM (inactive)
CC[n+]1c(/C=C/N(C)c2ccccc2)n(-c2ccccc2)c2ccc(-c3nc4ccccc4s3)cc21 | > 30 µM (inactive)
Cc1ccc(N=Nc2c(O)ccc3n[nH]nc23)cc1 | 4.23 µM
Cc1ccc(N=C2NC(=O)/C(=C\c3ccc(C)s3)S2)cc1 | > 30 µM (inactive)
Nc1c(S(=O)(=O)c2ccccc2)nnn1-c1ccccc1 | > 30 µM (inactive)
COCc1c(C(=O)N/N=C\c2cccnc2)nnn1-c1nonc1N | > 30 µM (inactive)
C[C@H](CO)N1C[C@H](C)[C@@H](CN(C)S(=O)(=O)c2ccc(F)cc2)Oc2c(NC(=O)Nc3ccccc3)cccc2C1=O | > 30 µM (inactive)
C#CCOCCOCCOCCNc1nc(N2CCOCC2)nc(N2CCN(C(=O)[C@H](CCC(=O)O)n3cc([C@@H](N)CCCCN)nn3)CC2)n1 | > 30 µM (inactive)
CCN1/C(=C\C(C)=O)Sc2ccc(OC)cc21 | 17.4 µM

SMILES | AC50
O=C1c2cnc3nc(SCc4ccccc4)nn3c2CC2c3ccccc3CCN12 (stereo not drawn) | > 30 µM (inactive)
COc1ccc(N=Cc2c(O)[nH]c3ccccc23)cc1 | 19.8 µM
Cc1ccc(-c2nnc3n2N=C(c2ccc(Br)cc2)CS3)cc1 | > 30 µM (inactive)
Cc1cc(NC(=O)CCSc2nc(-c3ccco3)cc(C(F)(F)F)n2)n(-c2ccccc2)n1 | > 30 µM (inactive)
CC(C)NC(=O)/C(=C\c1cccc([N+](=O)[O-])c1)NC(=O)c1ccccc1 | > 30 µM (inactive)
O=c1[nH]c(=S)n(CCC2=CCCCC2)c(O)c1C=NCCCn1ccnc1 | 14.3 µM
COc1ccc2ccccc2c1C1CC(=O)N2CN(Cc3ccco3)CSC2=C1C#N (stereo not drawn) | > 30 µM (inactive)
O=C(COC(=O)c1cccc(S(=O)(=O)N2CCOCC2)c1)Nc1ncc(Cl)cc1Cl | > 30 µM (inactive)
c1ccc2[nH]c(Cn3nnc4ccccc43)nc2c1 | > 30 µM (inactive)
Cc1c(C)n(CCCN(C)C)c2ncnc(NC3CCCCC3)c12 | > 30 µM (inactive)
CN1CCN(Cc2c(C(=O)N/N=C/c3cccc(Br)c3)nnn2-c2nonc2N)CC1 | 20.2 µM
Cc1cc(=O)[nH]c2c(C)cc(S(=O)(=O)Nc3ccc(O)cc3)cc12 | > 30 µM (inactive)
CC(=O)N1CCc2c(sc(NC(=O)c3cccc(N4C(=O)CCC4=O)c3)c2C(N)=O)C1 | > 30 µM (inactive)
COc1ccc(-c2cc(=O)oc3cc(O)ccc23)cc1 | 19.5 µM
CC(C)NC(=O)c1sc2nc3c(c(-c4cccs4)c2c1N)CN(C)CC3 | > 30 µM (inactive)
COc1ccc(-c2cc(C(F)(F)F)nc(SCCC(=O)NCc3ccco3)n2)cc1 | > 30 µM (inactive)
CC(C)CSc1ncnc2c1oc1nc3c(cc12)COC(C)(C)C3 | > 30 µM (inactive)
O=C(NCC1CCCO1)c1ccc(NC(=O)c2cccc([N+](=O)[O-])c2)cc1 (stereo not drawn) | > 30 µM (inactive)
CCOc1ccc(-c2nnc(N)o2)cc1 | > 30 µM (inactive)
Cc1c(CN(C)C)c2c(n1Cc1ccccc1)C(=O)c1ccccc1-2 | > 30 µM (inactive)
C[C@H](CO)N1C[C@H](C)[C@@H](CN(C)S(=O)(=O)c2ccccc2)Oc2c(NS(=O)(=O)c3ccc(F)cc3)cccc2C1=O | > 30 µM (inactive)
CC1(C)Cc2nc3oc4c(=S)nc[nH]c4c3cc2CO1 | 17 µM
COc1cc(/C=N/NC(=O)c2ccc(COc3ccccc3Cl)o2)cc(Br)c1O | > 30 µM (inactive)
CC1(C)Cc2nc3sc4c(SCC(=O)O)ncnc4c3cc2CO1 | 6.18 µM
c1ccc2[nH]c(C3CC3)nc2c1 | > 30 µM (inactive)
